Test results from publication PMC6933783 (ACS Omega, 2019).

Experiments:
MAO-B = molecular target: T1, MAO-B (Homo sapiens, UniProt P27338); test: Reversibility of MAO-B inhibition; assay type: biochemical; settings: dilution assay, 30 min preincubation, Figure S3
T1 sequence (P27338 1-520): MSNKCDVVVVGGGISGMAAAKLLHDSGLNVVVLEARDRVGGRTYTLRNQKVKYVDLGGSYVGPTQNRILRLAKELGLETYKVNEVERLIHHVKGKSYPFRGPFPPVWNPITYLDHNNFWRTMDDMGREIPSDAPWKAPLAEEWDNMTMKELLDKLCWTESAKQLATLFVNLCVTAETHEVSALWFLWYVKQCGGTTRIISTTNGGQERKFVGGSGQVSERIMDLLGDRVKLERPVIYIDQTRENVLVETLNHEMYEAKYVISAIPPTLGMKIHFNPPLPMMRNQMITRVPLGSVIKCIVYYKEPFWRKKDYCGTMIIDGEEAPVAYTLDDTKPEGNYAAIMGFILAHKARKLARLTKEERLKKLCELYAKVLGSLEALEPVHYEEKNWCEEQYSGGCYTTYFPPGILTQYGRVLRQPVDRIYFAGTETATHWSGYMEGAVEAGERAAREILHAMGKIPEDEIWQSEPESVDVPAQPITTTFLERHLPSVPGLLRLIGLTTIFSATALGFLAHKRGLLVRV

[1] = molecular target: human acetylcholinesterase (AChE) (Homo sapiens, UniProt P22303); test: Cholinesterase assay; assay type: biochemical; settings: for αKi ± SE, AChE: uncompetitive contribution, Lineweaver-Burk plots
Sequence of human acetylcholinesterase (AChE) (P22303 32-617 isoform P22303-2 limits assumed): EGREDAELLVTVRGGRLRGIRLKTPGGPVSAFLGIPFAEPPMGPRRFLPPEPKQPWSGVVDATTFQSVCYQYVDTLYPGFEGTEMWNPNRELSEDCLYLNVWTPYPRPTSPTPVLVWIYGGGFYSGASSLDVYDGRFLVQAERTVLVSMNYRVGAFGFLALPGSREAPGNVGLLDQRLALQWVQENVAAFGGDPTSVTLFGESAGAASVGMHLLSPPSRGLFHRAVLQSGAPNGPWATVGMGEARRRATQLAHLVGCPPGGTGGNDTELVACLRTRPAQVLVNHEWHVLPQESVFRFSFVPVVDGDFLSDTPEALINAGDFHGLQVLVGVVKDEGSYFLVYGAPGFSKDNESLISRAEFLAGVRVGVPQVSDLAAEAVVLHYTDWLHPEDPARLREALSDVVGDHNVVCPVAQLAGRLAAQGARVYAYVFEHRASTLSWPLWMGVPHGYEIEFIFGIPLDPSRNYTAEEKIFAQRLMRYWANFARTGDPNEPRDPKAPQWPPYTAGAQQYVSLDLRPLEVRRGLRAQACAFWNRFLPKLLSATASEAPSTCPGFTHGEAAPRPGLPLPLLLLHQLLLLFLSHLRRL

Row | SMILES | reversibility of MAO-B inhibition (MAO-B) | Ki [1] | αKi ± SE, AChE [1]
1 | O=c1ccoc2ccc(OCCCCN3CCCCC3)cc12 [Compound 7, 6-(4-(piperidin-1-yl)butoxy)-4H-chromen-4-one] | reversibility of MAO-B inhibition was exemplarily demonstrated | – | –
2 | CN1CCN(CCCCOc2ccc3occc(=O)c3c2)CC1 [Compound 15, 6-(4-(4-Methylpiperazin-1-yl)butoxy)-4H-chromen-4-one] | – | 2.06 ± 0.56 µM | 5.36 ± 0.70 µM
3 | C[C@@H]1CCCN1CCCCOc1ccc2occc(=O)c2c1 [Compound 27] | – | 9.23 ± 5.01 µM | 19.0 ± 4.1 µM
